Assay results from a melting point compilation (Tetko et al.; mined from patent text by program, amines drawn as free bases though some values may be those of a salt).

Row | Structure (SMILES) | melting point
1 | Cc1ccc2c(c1)C(C(=O)Nc1c(Br)cccc1Br)c1ccccc1CO2 (centres undefined) | 184 °C
2 | CNC(=N[N+](=O)[O-])NCc1ccc(Cl)nc1 | 150 to 152 °C
3 | COc1ccc(N(C)C(=O)CN(C(=O)CNC(=O)Nc2cccc(C)c2)c2ccccc2)cc1 | 202 °C
4 | NCc1ccc(C(=O)CCCN2CCC(c3ccc(Cl)cc3)CC2)cc1 | 94 to 96 °C
5 | CCCCNc1cc(CN(Cc2ccccc2)C(=O)c2ccccc2)cc(S(N)(=O)=O)c1Oc1ccccc1 | 137 to 138 °C
6 | FC(F)(F)c1cccc(-c2cc(C3CCNCC3)nnc2-c2ccncc2)c1 | 148 to 150 °C
7 | CCCn1cccc1C(N)=S | 88 to 91 °C
8 | Cc1nc(N2CCNCC2)nc(N2CCSCC2)c1C#N | 146 to 148 °C
9 | CC(Oc1cc(C(F)(F)F)cc(C(F)(F)F)c1)C(=O)O (centres undefined) | 51 to 53 °C
10 | O=C(O)c1ccc2nc3c4nc5cc(C(=O)O)ccc5nc4c4nc5cc(C(=O)O)ccc5nc4c3nc2c1 | > 390 °C
11 | COC(=O)C(=O)C12CC3CC(CC(O)(C3)C1)C2 | 164 to 166 °C
12 | COc1ccc(N2CCN(c3ncc(N)cn3)CC2)cc1 | 157 °C
13 | NS(=O)(=O)c1csc2cc(O)cnc12 | 245 to 247 °C
14 | OC(c1cc2ccccc2s1)C1CCN(CCc2ccccc2)CC1 (centres undefined) | 178 °C
15 | CCOC(=O)C1=C(C)NC(CCN(C)C)=C(C(=O)OCC)C1c1ccccc1/C=C(\C)C(=O)OCC (centres undefined) | 109 °C
16 | O=c1[nH]c2ncc(-c3ccnc(O)c3)nc2n1CC1CCCCC1 | 311 to 313 °C
17 | CN1CCc2c(sc3ncn(CCO)c(=O)c23)C1 | 163 to 165 °C
18 | COC(=O)C(OC)(c1ccccc1)c1nc(OC)cc(OC)n1 (centres undefined) | 72 to 76 °C
19 | CCCCCCc1nc2cc3c(cc2[nH]1)NC(=O)C3(C)C | 233 to 234 °C
20 | Clc1cccc2c1CNC2 | 48 to 50 °C

Row | Structure (SMILES) | melting point
21 | O=C1NC(=O)c2ccccc2/C1=C/Nc1ccc2cn[nH]c2c1 | > 300 °C
22 | COc1nc(NC(=O)NS(=O)(=O)Nc2nc(C)cc(C)n2)nc(OC)n1 | 172 °C
23 | CC(=O)c1ccc(-n2c(-c3cc(-c4ccncc4)c(N4CCOCC4)s3)nc3ccccc3c2=O)cc1 | 241 to 242 °C
24 | O=c1oc2cc(O)c(F)cc2s1 | 141 to 143 °C
25 | O=C(CP(=O)(O)O)NC12CC3CC(CC(C3)C1)C2 | 190 to 194 °C
26 | CC(CSC(=O)c1ccccc1)C(=O)N1CC(Oc2ccc(CC3Nc4cc(C(F)(F)F)c(S(N)(=O)=O)cc4S(=O)(=O)N3)cc2)CC1C(=O)O (centres undefined) | 170 to 182 °C
27 | Cc1cc(C(O)CN2CCC(O)(c3cccc(F)c3)CC2)c(C)cc1O (centres undefined) | 193 °C
28 | C=C1CCCc2c(C(=O)OCC)n(C)c3cccc1c23 | 45 to 49 °C
29 | O=C(O)c1cc(SCc2ccsc2)c(-c2ccccc2)c([N+](=O)[O-])c1 | 159 to 161 °C
30 | Cc1ccc(S(=O)(=O)NC(=O)CC(=O)O)cc1 | 80 °C
31 | CCCCn1c(SC(CC)C(N)=O)nc2c1c(=O)[nH]c(=O)n2C (centres undefined) | 253 °C
32 | COc1cccc([C@@H]2CC[C@H](c3cccc(O)c3)N2C(=O)CNC(=O)Nc2cccc(C(=O)O)c2)c1 (relative stereo) | 172 °C
33 | c1cc2ccc3nnsc3c2cn1 | 150 to 153 °C
34 | Cc1cc2c(cc1N1CCCC1)OC(=O)C2C (centres undefined) | 67 to 69 °C
35 | Cc1cc(Oc2ccc(Cl)c3c2CCCC3)c(Cl)cc1[N+](=O)[O-] | 139 to 140 °C
36 | CC(C)C[C@H](OC(=O)N1CCCCCC1)C(=O)O | 86 to 88 °C
37 | O=C(Nc1cccnc1)N1CCN(c2nccc(-c3ccccc3F)n2)CC1 | 200 to 201 °C
38 | COc1ccc(N2CCN(c3c(C)c(C)c4c(c3C)C(c3ccc(C)nc3)C(C)(C)O4)CC2)cc1 (centres undefined) | 131 to 133 °C
39 | COc1ccc2c(c1)CCC1C2CCC2(C)C(NCCc3cccn3C)CCC12 (centres undefined) | 141 to 143 °C
40 | CN=C(Cc1ccccc1)N1CC2C(=O)CCC(c3ccccc3)(c3ccccc3)C2C1 (centres undefined) | 110 °C

Row | Structure (SMILES) | melting point
41 | CC(C)(N)Cc1nc2ccccc2[nH]1 | 209 to 214 °C
42 | Cc1c(Br)ccc2c1oc1ccccc12 | 124 to 125 °C
43 | Nc1cccc(-c2ccc(CCN3CCN(CCc4ccc(F)cc4)CC3)cc2)n1 | 165 to 167 °C
44 | CS(=O)(=O)c1cccc(-n2c(=O)n(Cc3ccncc3)c(=O)c3cccnc32)c1 | 254 to 256 °C
45 | COc1cn(-c2ccc(N3CC(F)(F)C3)cc2F)nc(-c2ccnn2-c2ccccc2)c1=O | 204 to 206 °C
46 | O=C(NCCO)c1csc(C(F)(F)F)n1 | 100 to 101 °C
47 | ON=Cc1c(-c2ccccc2Cl)ccc2c1OCO2 | 182 to 183 °C
48 | N#Cc1c(N2CCN(C(=O)c3cccs3)CC2)c2ccccc2n(-c2ccccc2)c1=O | 289 °C
49 | CCCc1nc(C)n2nc(C)nc2c1Cc1ccc(-c2ccccc2C#N)cc1 | 132 °C
50 | CN1CCN(c2cccc3c2C[C@H](NC(=O)c2ccc(-n4cccc4)cc2)CC3)CC1 | 245 to 247 °C
51 | CCOC(=O)CC(=O)Nc1ncc(Br)s1 | 165 to 166 °C
52 | Brc1cccc(Oc2ncccc2OCCCc2ccncc2)c1 | 111 to 113 °C
53 | Nc1cc(-c2cccnc2)ccc1S(N)(=O)=O | 240 to 243 °C
54 | C=CCOc1ccc2cn[nH]c2c1 | 110 to 112 °C
55 | CCCCCCCCCCCCCCC1CC(=O)N(NC(=O)CCc2cc(C(C)(C)C)c(O)c(C(C)(C)C)c2)C1=O (centres undefined) | 70 to 77 °C
56 | CCC1(CC)CN(C(C)(C)C)C(=O)C(CC)(CC)N1OC(C)(C)C#N | 45 to 52 °C
57 | Nc1c(Cl)cc(Nc2ncnc3cnc(N[C@H]4CC[C@H](C(=O)N5CCOCC5)CC4)nc23)cc1Cl | 204 to 207 °C
58 | O=C1NC(=O)C(Br)(c2ccc(Oc3ccccc3)cc2)C(=O)N1 | 125 to 127 °C
59 | CS(=O)(=O)c1cncc(-c2nc(=O)c3ccccc3s2)n1 | 232 to 233 °C
60 | Cc1nnnn1CC(C)n1nnc2cc3c(=O)n(C4CC4)nnc3cc2c1=O (centres undefined) | 208 to 211 °C

Now from value to compound:

Row | melting point | Structure (SMILES)
61 | 122 to 124 °C | O=C1C(=CO)C(c2ccc(Cl)cc2)c2ccc(Cl)cc21 (centres undefined)
62 | 185 to 190 °C | CCc1ccc2c(-c3cnc4[nH]cc(C(=O)N[C@H](C)C(=O)N5CC(C#N)C5)c4n3)nn(C)c2c1
63 | 190 to 192 °C | COc1ccc2c(c1)CCC1CCN(C)C(=O)C(CC(C)=O)=C21 (centres undefined)
64 | 145 to 149 °C | CC[C@H](C)[C@H](NC(=O)OCc1ccccc1)C(=O)Nc1nncs1 (racemic)
65 | 73 to 75 °C | CCOC(=O)C(N=C(c1ccc(Cl)cc1)c1ccc(OC)cc1O)C(=O)OCC
66 | 218 to 219 °C | CC(=O)c1ccc2c(c1)[C@@H](N1CCCC1=O)[C@H](O)C(C)(C)O2 (relative stereo)
67 | 125 to 127 °C | COc1ccc2sc(S(N)(=O)=O)cc2c1
68 | 106 to 108 °C | COc1cc(C(C)=NN)ccc1OCCCN1CCC(c2noc3cc(F)ccc23)CC1
69 | 144 to 147 °C | COc1ccc(Sc2cc(C(=O)O)c[nH]2)cc1
70 | 123 to 124 °C | CCS(=O)(=O)N(C(C)=O)c1cc(-c2ncnc(C(F)F)c2Cl)c(F)cc1C#N
71 | > 270 °C | Nc1cc(-n2cc(C(=O)O)c(=O)c3cc(F)c(Cl)nc32)ccc1F
72 | 125 to 127 °C | CCCCC(=O)c1c(CSc2nccn2C)nc2cc(OC)c(OC)cc2c1-c1ccc(OC)c(OC)c1
73 | 204 to 205 °C | CCOC(=O)C1=C(C)Nc2cc[nH]c(=O)c2C1c1ccccc1Cl (centres undefined)
74 | 87 to 89 °C | CCCCCCc1cc(-c2ccccc2)c(OCC(=O)OC)c(-c2ccccc2)c1
75 | 93.5 to 95.6 °C | CC(C)CCN(CC(O)C(Cc1ccccc1)NC(=O)C(CC(N)=O)NC(=O)c1ccc2ccccc2n1)C(=O)NC(C)(C)C (centres undefined)
76 | 105 °C | CCC1(C)CCN(c2ccc([N+](=O)[O-])cc2C(=O)c2ccc(Cl)cc2)CC1
77 | 168 to 175 °C | COC(=O)CC[C@H](NC(=O)c1ccc(N(C)CCc2c(NC(C)=O)nc(NC(C)=O)[nH]c2=O)cc1)C(=O)OC
78 | 149 to 150 °C | O=C(CCN1CCOCC1)Nc1cc(-c2nnc(CCc3cccc(F)c3)o2)ccn1
79 | 75 to 80 °C | CC(C)(C)OC(=O)NNCc1cccc(C#N)c1
80 | 127 to 128 °C | O=C(O)c1nc(-c2ccccc2Oc2ccc(F)cc2O)no1

Row | melting point | Structure (SMILES)
81 | 177 to 179 °C | COc1cccc(C(=O)Nc2ccc3sc(C)nc3c2Cl)c1
82 | 215 to 218 °C | COCC#Cc1cc2c(O)c(C(=O)NCc3ccc(Cl)cc3)cnc2s1
83 | 192 to 195 °C | O=Cc1c2ccccc2c(C=O)c2cc(Cl)ccc12
84 | 67 to 69 °C | COC(=O)Cc1ccc2c(=O)c3ccccc3ccc2c1
85 | 143 °C | COc1ccc2c(c1)C(C(=O)N(Cc1ccc(CO)cc1)c1ccc(C(C)C)cc1)CCC2 (centres undefined)
86 | 147 to 148 °C | CCOc1ccc(N(C)C=C(C#N)C#N)cc1
87 | 146 to 147 °C | C=CCc1c(C(=O)OCC)nc2ccccc2c1O
88 | 172 to 173 °C | CC(C)(C)OC(=O)N1CCC(n2c(=O)n(CC(F)(F)F)c3cc(F)ccc32)CC1
89 | 147 to 148 °C | CC(C)(C)OC(=O)NC(CC#N)COc1noc2ccc(Cl)cc12 (centres undefined)
90 | 60.5 to 63.5 °C | COc1ccc(CSc2nnc(CCl)s2)cc1
91 | 146 to 150 °C | N#Cc1cnccc1CCCOc1cccnc1Oc1cccc(Cl)c1
92 | 99.7 to 105 °C | CNC(=O)N(Cc1ccc(C)c(C)c1)NC(=O)OC(C)(C)C
93 | 145 to 147 °C | CNc1nc(-c2cccc(NC(=O)c3ccccc3)c2)c2cc(O)c(OC)cc2n1
94 | 74 to 77 °C | COc1ccc(CCNC(=O)C(F)(F)F)cc1
95 | 187 to 189 °C | CCOC(=O)NCc1cccc2c1C(=O)N(C1CCC(=O)NC1=O)C2=O (centres undefined)
96 | 101 to 103 °C | CCCCCS(=O)(=O)NC(=O)/C=C/c1ccc(OCC(COC(C)C)OC(C)=O)cc1Oc1ncc(C(F)(F)F)cc1Cl (centres undefined)
97 | 150 °C | CCOc1ccc2c(c1)n(-c1ccccc1Cl)c(=O)n2Cc1ccc(NC(=O)N(CC)CC)cc1OC
98 | 278 to 280 °C | CCS(=O)(=O)Cc1ccc(Cl)c2nc3n(c12)CCCN3c1ccc(Cl)cc1Cl
99 | 73.5 to 75 °C | CCOCC(O)(COCC)C(Cc1cc(OC)cc(OC)c1)NC(=O)OC(C)(C)C (centres undefined)
